Data published in patent US20210100905A1, “APPLICATION OF COMPOUND OR TRADITIONAL CHINESE MEDICINE EXTRACT IN PREPARATION OF NUCLEIC ACID DELIVERY AGENT, AND RELATED PRODUCTS” (INSTITUTE OF BASIC MEDICAL SCIENCES CHINESE ACADEMY OF …, priority 2018, published 2021).

Key:
A549 cell line = assay: Fluorescence in situ hybridization (FISH) of small RNA; assay type: cell-based, human; details: FIG. 12
Description: 3.3.3 Fluorescence in Situ Hybridization (FISH) of Small RNA
2) Fix in 4% paraformaldehyde (500 μl/well, prepared in PBS buffer) at room temperature for 20 min.
4) PBS was removed, and cells were permeabilized with PK (proteinase K) buffer at room temperature for 10 min.
9) The culture plate was placed in a hybridization cassette in hybridization buffer (50% formamide, 5×SSC, 5×Denharts, 250 μg/mL yeast RNA, 500 μg/mL herring sperm DNA) and pre-incubated at room temperature for 1 hour.
10) Add RNA probes (HJT-sRNA-m7 probe: 5′-[…]-3′ (SEQ ID NO: 27), Scrambled probe: 5′-[…]-3′ (SEQ ID NO: 28), U6 probe: 5′-TTTGCGTGTCATCCTTGCG-3′ (SEQ ID NO: 29)) to the hybridization buffer (the concentration of RNA probes was 0.1-0.2 ng/μl), denature at 85° C. for 5 min, and quickly place it on ice. […]
Mixtures of soybean PC, lipid No. 11 (18:0/18:2) and lipid No. 12 (16:0/18:2), and various small RNA(see below Table 3) were prepared by the reverse evaporation method and then added into A549 cell line (the final concentration of sRNA was 200 nM); the negative control group (control) was directly added with the same concentration of sRNA; the positive control group (RNAimax) was transfected with Lipofectamine RNAimax (transfection reagent 6 μ/well). The abundance of sRNA in the cells was detected by Taqman probe after 3 hours, and the relative expression level of sRNA was calculated by 2-ΔCt method.

MRC-5 cells = assay: Western blot of fibronectin/α-SMA after lipid-mediated delivery of anti-fibrotic HJT-sRNA, TGF-β1 stimulation; assay type: cell-based; details: FIG. 102; nucleic acid 400 nM; TGF-β1 3 ng/mL, 72 hours
Description: (§1) 3.3 Western blot detection of protein expression levels 3.3.1 MRC-5 cell (pulmonary embryonic fibroblast), and A549 cell (human lung adenocarcinoma cell) were cultured to logarithmic growth phase, and then plated into 12-well plates at a cell density of 6×10^5/1 mL medium/well; MRC-5 cells were cultured in Eagle's MEM medium (MEM, Gibco); A549 cells were cultured in Ham's F-12 medium (HyClone); followed by incubation overnight at 37° C., and the follow-up experiments were performed after the cells were attached to the walls.
(§2) 4) Lipid nucleic acid mixture: the mixture of lipid and nucleic acid prepared from the step 2 were added into cells and mixed, and the final concentration of nucleic acid was 400 nM.
(§3) 3.3.3 After 24 hours of treatment, the cells were stimulated with the stimulant (1 μg/mL poly (I:C) (P1530, Sigma-Aldrich) as double-stranded RNA viruses mimetics) or 3 ng/mL transforming growth factor TGF(31 (Pepro Tech)). […]

A549 cells = assay: Western blot of knockdown protein after lipid-mediated siRNA delivery; assay type: cell-based, human; details: FIG. 82; reverse evaporation method; LAMP2, XPN2, Ssu72, CPSF4 or β-actin siRNA 400 nM
Description: as §1, §2, §3

[1] = In vivo intragastric delivery of small RNA with lipid No. 41, samples after 6 hours; design: species or system mice; details: each small RNA 1 nmol/animal
Description: [Experimental method] 6-8 weeks old mice, 22-24 g, were raised in SPF room of the Animal Center of the Institute of Basic Medical Sciences of Chinese Academy of Medical Sciences. The mice were fasted for 12 hours before intragastric administration. The mice were randomly divided into 3 groups: (1) control group, 400 μl DEPC-treated water, intragastric administration; (2) free uptake group, small RNA (PGY-sRNA-26, PGY-sRNA-32 and PGY-sRNA-23), each small RNA 1 nmol/animal, dissolved in 400 μl DEPC-treated water, intragastric administration; (3) lipid No. 41 group: a mixture of small RNA (PGY-sRNA-26 and PGY-sRNA-32) and lipid No. 41 prepared by heating method was intragastrically administered, each small RNA 1 nmol/animal, lipid No. 41 10 μl/animal, dissolved in 400 μl DEPC-treated water. All tissue and organ samples were collected after 6 hours of intragastric administration. All small RNAs were single-stranded RNA modified by 3p- terminal 2-O-methylation.

With `CCCCC/C=C\C/C=C\CCCCCCCC(=O)O[C@H](COC(=O)CCCCCCCCCCCCCCCCC)COP(=O)([O-])OCC[N+](C)(C)C` [No. 11, trimethyl(2-{[(2R)-2-[(9Z, 12Z)-octadeca-9,12-dienoyloxy]-3-(octadecanoyloxy)propyl-phosphonato]oxy}ethyl) azanium] the “localization of delivered nucleic acid (FISH)” value (A549 cell line) was “entered into cytoplasm and were primarily localized in cytoplasm”.
In the case of `CCCCC/C=C\C/C=C\CCCCCCCC(=O)O[C@H](COC(=O)CCCCCCCCCCCCCCC)COP(=O)([O-])OCC[N+](C)(C)C` [No. 12, (2-{[(2R)-3-(hexadecanoyloxy)-2-[(9Z,12Z)-octadeca-9,12-dienoyloxy]propylphosphonato]oxy}ethyl) trimethylazanium], the “localization of delivered nucleic acid (FISH)” value (A549 cell line) was “entered into cytoplasm and were primarily localized in cytoplasm”.
For `CCCCCCCC/C=C\CCCCCCCCCCCC(=O)O[C@H](COC(=O)CCCCCCCCCCCCCCC)COP(=O)(O)OCCN` [No. 40, (2-aminoethoxy) [(2R)-2-[(13Z)-docos-13-enoyloxy]-3-(hexadecanoyloxy)propoxy] phosphinic acid], the “fibronectin protein expression after delivery of double-stranded HJT-sRNA-m7 (Western blot)” value (MRC-5 cells) was “mediated anti-fibrotic double-stranded RNA HJT-sRNA-m7 entry into MRC-5 cells to down-regulate fibronectin protein expression”.
With `CCCCCCCCCCCCCCCCCCC[C@@H](O)[C@@H](N)CO` [No. 41, Sphinganine (d22:0)] the “protein knockdown effect of delivered siRNA vs RNAiMAX (Western blot)” value (A549 cells) was “significantly higher than the inhibitory effect of HJT-sRNA-m7 mediated by RNAiMAX”, the “entry of small RNA into the blood” value ([1]; FIG. 108, lipid 10 μl/animal) was “could promote the entry of small RNA into the blood, protecting it from degradation in the blood” and the “entry of small RNA into the stomach cells” value ([1]; FIG. 109, lipid 10 μl/animal) was “could promote the entry of small RNA into the stomach cells, protecting it from degradation in the stomach”. For the same molecule, the “entry of small RNA into small intestinal cells” value ([1]; FIG. 110, lipid 10 μl/animal) was “could promote the entry of small RNA into small intestinal cells, protecting it from degradation in the small intestine” and the “entry of small RNA into the liver” value ([1]; FIG. 111, lipid 10 μl/animal) was “could promote the entry of small RNA into the liver, protecting it from degradation in the liver”.
